Publication PMC6397177, “An uncharacterized FMAG_01619 protein from Fusobacterium mortiferum ATCC 9817 demonstrates that some bacterial macrodomains can also act as poly-ADP-ribosylhydrolases” (Scientific Reports, 2019)

How the values were obtained:
hTARG1 = biological target: T1, hTARG1 (Homo sapiens, UniProt Q9Y530); assay: thermal shift assay, SYPRO Orange; format: binding; conditions: 100 mM phosphate pH 7.0; ligand up to 50 mM
T1 construct: gene OARD1; synthetic gene in pET28a; E. coli Rosetta2(DE3); tag removal not clearly told
T1 sequence (Q9Y530 2-152): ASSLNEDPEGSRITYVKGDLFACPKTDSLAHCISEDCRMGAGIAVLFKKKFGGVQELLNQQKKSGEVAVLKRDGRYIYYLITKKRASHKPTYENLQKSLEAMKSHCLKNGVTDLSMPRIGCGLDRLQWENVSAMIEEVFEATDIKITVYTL

FmTARG1 [1] = biological target: T2, FmTARG1 (Fusobacterium mortiferum, UniProt A0ABN5JAQ3); assay: thermal shift assay, SYPRO Orange; format: binding; conditions: 100 mM phosphate pH 7.0; ligand up to 50 mM
T2 construct: gene C4N19_10685; synthetic gene in pSol-AFV, AFV-tag removed with TEV protease; expressed in E. coli 10G
T2 sequence (A0ABN5JAQ3 2-142 limits assumed): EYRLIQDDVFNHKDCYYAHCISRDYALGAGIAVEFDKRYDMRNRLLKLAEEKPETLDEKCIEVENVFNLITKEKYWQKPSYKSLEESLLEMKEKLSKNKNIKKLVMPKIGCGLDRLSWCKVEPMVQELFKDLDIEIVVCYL

FmTARG1 [2] = biological target: T2, FmTARG1; assay: HPLC deacetylation assay; format: biochemical; conditions: competitive against OAADPr; Bis-Tris pH 7.3, 300 mM NaCl, 25 °C

Structure (SMILES) | dTm (hTARG1) | dTm (FmTARG1 [1]) | Ki (FmTARG1 [2]) [µM]
Nc1ncnc2c1ncn2[C@@H]1O[C@H](COP(=O)(O)OP(=O)(O)O)[C@@H](O)[C@H]1O [ADP] | AMP and ADP, also bind to both enzymes in a dose-dependent manner | AMP and ADP, also bind to both enzymes in a dose-dependent manner | 
Nc1ncnc2c1ncn2[C@@H]1O[C@H](COP(=O)(O)OP(=O)(O)OC[C@H]2OC(O)[C@H](O)[C@@H]2O)[C@@H](O)[C@H]1O (some centres unmarked) [ADPr] |  |  | 203 ± 10
Nc1ncnc2c1ncn2[C@@H]1O[C@H](COP(=O)(O)O)[C@@H](O)[C@H]1O [AMP] | AMP and ADP, also bind to both enzymes in a dose-dependent manner | AMP and ADP, also bind to both enzymes in a dose-dependent manner | 
